# In ChEMBL document CHEMBL3352089 (J Med Chem, 2014):
# How the values were obtained:
# [1] = Cytotoxicity against human HepG2 cells assessed as cell viability at 1 uM after 4 hrs by Cell-Titer Glo assay; format: cell-based; details: read-out: Activity
# [2] = Cytotoxicity against human HepG2 cells assessed as cell viability at 10 uM after 4 hrs by Cell-Titer Glo assay; format: cell-based; details: read-out: Activity
# [3] = Cytotoxicity against human HepG2 cells assessed as cell viability at 1 uM after 24 hrs by Cell-Titer Glo assay; format: cell-based; details: read-out: Activity
# [4] = Cytotoxicity against human HepG2 cells assessed as cell viability at 10 uM after 24 hrs by Cell-Titer Glo assay; format: cell-based; details: read-out: Activity
# [5] = molecular target: T1, TGF-beta receptor type-1 (Homo sapiens) (UniProt P36897)
# T1 sequence (whole entry): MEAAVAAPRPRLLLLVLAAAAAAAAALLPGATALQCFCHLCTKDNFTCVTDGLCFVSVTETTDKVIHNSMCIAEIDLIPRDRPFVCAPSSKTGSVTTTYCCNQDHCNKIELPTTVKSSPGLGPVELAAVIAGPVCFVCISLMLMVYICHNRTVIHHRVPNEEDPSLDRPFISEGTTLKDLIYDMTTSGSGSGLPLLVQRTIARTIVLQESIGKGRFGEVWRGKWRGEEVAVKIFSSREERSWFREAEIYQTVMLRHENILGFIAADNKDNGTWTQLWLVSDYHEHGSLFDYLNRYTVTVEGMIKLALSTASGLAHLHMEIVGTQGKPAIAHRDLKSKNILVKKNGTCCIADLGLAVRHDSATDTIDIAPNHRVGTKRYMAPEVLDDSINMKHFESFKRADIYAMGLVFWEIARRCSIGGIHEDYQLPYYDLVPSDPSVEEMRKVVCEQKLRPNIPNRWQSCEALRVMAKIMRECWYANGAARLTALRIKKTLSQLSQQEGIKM
# Description: Inhibition of purified ALK5 kinase (unknown origin) by RT-PCR analysis
# [6] = system: T2, Activin receptor type-1 (Homo sapiens), Q04771 [Q207D]
# T2 sequence (whole entry): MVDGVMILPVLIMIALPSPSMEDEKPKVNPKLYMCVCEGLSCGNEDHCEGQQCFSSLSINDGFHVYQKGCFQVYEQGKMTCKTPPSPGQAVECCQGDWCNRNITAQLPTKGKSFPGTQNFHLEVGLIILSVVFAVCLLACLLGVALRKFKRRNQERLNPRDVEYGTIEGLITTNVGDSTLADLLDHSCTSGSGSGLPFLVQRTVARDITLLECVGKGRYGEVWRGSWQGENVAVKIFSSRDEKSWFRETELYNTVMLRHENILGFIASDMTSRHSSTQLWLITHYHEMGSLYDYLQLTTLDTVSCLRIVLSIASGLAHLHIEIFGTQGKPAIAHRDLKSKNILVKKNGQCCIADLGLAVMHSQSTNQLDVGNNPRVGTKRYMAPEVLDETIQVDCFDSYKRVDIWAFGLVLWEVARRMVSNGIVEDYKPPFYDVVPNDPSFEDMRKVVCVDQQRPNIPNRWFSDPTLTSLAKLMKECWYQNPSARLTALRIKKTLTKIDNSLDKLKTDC
# [7] = Cytotoxicity against human HepG2 cells assessed as cell viability at 100 uM after 24 hrs by Cell-Titer Glo assay; format: cell-based; details: read-out: Activity
# [8] = Cytotoxicity against human HepG2 cells assessed as cell viability at 100 uM after 4 hrs by Cell-Titer Glo assay; format: cell-based; details: read-out: Activity
SMILES,"viability at 4 h, 1 µM [1]","viability at 4 h, 10 µM [2]","viability at 24 h, 1 µM [3]","viability at 24 h, 10 µM [4]",ΔTm [5],ΔTm [6],"viability at 24 h, 100 µM [7]","viability at 4 h, 100 µM [8]"
COc1cc(-c2cncc(-c3ccc(N4CCNCC4)cc3)c2)cc(OC)c1OC,> 75%,> 75%,> 75%,> 75%,10.4 °C,14.1 °C,–,–
COc1cc(-c2cc(-c3ccc(N4CCNCC4)cc3)cnc2C)cc(OC)c1OC,> 75%,> 75%,> 75%,> 75%,9.7 °C,13.7 °C,> 75%,> 75%
COc1cc(-c2cc(-c3ccc(N4CCNCC4)cc3)cnc2N)cc(OC)c1OC,> 75%,> 75%,> 75%,> 75%,13.9 °C,15.1 °C,–,> 75%
